The record followed here is US5028605A, “8-alkylaminoimidazo(1,2-a)pyrazines and derivatives, their preparation and their application in therapy” (l'Universite de Montpellier I, priority 1986, dated 1991).

A word on the ED50: it is the dose at which the effect has come halfway, by size or by number of responders.

Some results are limits rather than exact numbers.

The test system of assay [1] is duodenum. As to the kind of experiment: Antispasmodic activity: barium chloride-induced contraction of isolated rat duodenum (Magnus). Conditions: for ED50 Theo/ED50 product (antispasmodic activity): barium chloride 10^-4 M, isolated rat duodenum, 37° C., mean of 5 to 6 determinations. Here is the method:
Fragments of duodenum are removed from male rats (200 g), fasted for 24 hours and killed by decapitation, and are mounted, after being washed, in a thermostatted (37° C.) isolated organ cell and maintained in survival in Tyrode's solution according to Magnus's classical technique.
The spasmogenic agent used is barium chloride (10^-4 M).
In the first instance, the spasmogenic agent is added to the nutrient bath and, as soon as the contraction of the organ reaches its maximum, the relaxant agent is added to the medium. Working in relation to a fixed concentration of barium chloride with variable concentrations of relaxant, the ED50 of the latter, capable of reducing the induced contraction by 50%, is determined.
The results expressed in Table IV below show the ratio ED50 Theo/ED50 product, established on the basis of the mean of the results of 5 to 6 determinations per product (ED50theophylline=8×10^-4 M).

Assay [2] concerns uterine horns. Nature of the assay: Uterine relaxant activity: spontaneous contractions of isolated rat uterine horn fragments. To be noted: for ED50 Theo/ED50 product (uterine relaxant activity): isolated rat uterine horn, spontaneous contractions, mean of 5 to 10 determinations. Here is the method:
Female rats (150-180 g) are killed by decapitation 24 hours after the intraperitoneal administration of stilbestrol (0.1 mg/kg). The uterine horns are removed and fragments mounted in a thermostatted (37° C.) isolated organ cell and maintained in survival in oxygenated De Jalon's solution of composition (mM): NaCl (153.8); KCl (5.6); CaCl2 (2.16); NaHCO3 (1.8); dextrose (5.5). One end of the uterine fragment is maintained fixed, while the other is attached to a recording myograph under a tension of the order of 0.5 g. The spontaneous uterine contractions are recorded on a kymograph. The organ is left at rest for 30 minutes and washed three times. The test products are introduced directly into the bath after being dissolved in De Jalon's solution, and the activity measured (ED50) corresponds to the dose capable of reducing the magnitude of the spontaneous contractions by 50%.
The results expressed in Table V below show the ratio ED50 Theo/ED50 product, established on the basis of the mean of the results of 5 to 10 determinations per product. (ED50 theophylline=0.9×10^-3 M)

In assay [3] the test system is histamine-induced bronchoconstriction, guinea pigs. Nature of the assay: Antibronchospastic activity: histamine-induced bronchospasm in anesthetized guinea pigs. Format: in vivo, guinea pig. Conditions: for ED50 Theo/ED50 product (bronchospasm induced in guinea pigs): intravenous, 30 seconds before histamine, mean of 5 to 8 determinations. Here is the method: Guinea pigs of both sexes weighing between 400 and 600 g are anesthetized with ethyl carbamate ([…] i.p.). After tracheotomy, the animal is placed under artificial respiration at a constant flowrate (Palmer pump 1 m1/100 g×60/min). A take-off at the tracheal cannula enables the volume of air to be gaged at each inhalation by means of a Marey drum. Bronchospasm is induced by intraveneous (jugular) administration of histamine. For each animal, the dose of histamine (8 to 12 μg/kg) inducing an increase in the recording trace equal to double its initial value is determined. The dose adopted should provide three identical responses at intervals of 10 minutes.
The test product is administered intraveneously and then, 30 seconds later, histamine is administered again.

For assay [4], the system named is guinea pig trachea. As to the kind of experiment: Isolated guinea pig trachea: anti-contractional activity against carbachol. Conditions: for EC50 Theo/EC50 product (anti-contractional activity, trachea): carbachol 10^-4 M, isolated guinea pig trachea, mean of 5 to 6 determinations. The method, then: Guinea pigs of both sexes weighing on average 400 to 600 g are sacrificed, and the tracheas are removed and placed at 37° C. in an oxygenated environment (95% O2 -5% CO2) in Krebs fluid of the following composition (mM): NaCl (116), MgSO4 (1.2), KCl (3.7), CaCl2 (2.6), KH2 PO4 (2.2), NaHCO3 (24.9), glucose (10). The tracheal segments are then mounted horizontally between two hooks, one of which is fixed to the base of the isolated organ cell and the other is attached to a myograph under a tension of 0.5 g. The organ is left at rest for one hour and is subjected to four washes. The contraction-inducing reagent (carbachol) is added at a concentration (10^-4 M) greater than the concentration giving the maximum effect. After stabilization of the contractional effect, gradually increasing accumulative amounts of the test products are added to the cell. The bronchodilatory effect is measured as the percentage inhibition of the maximal contraction and EC50 represents the concentration inhibiting this concentration by 50%.

Assay [5] concerns mice. As to the kind of experiment: Motor activity: spontaneous activity in mice (neurosedative effect). Format: in vivo, mouse. To be noted: male mice, 50 minutes. Here is the method: The measurement of the neurosedative effect is based on the test of activity measurements in mice. […] Five minutes after the administration, the animals are placed in activity-measuring cages, which record their movements digitally by means of the interruption of beams of light. The results are recorded in Table IX and expressed as the percentage variation (increase or decrease ) in activity compared with the controls during a period of 50 minutes following the administration.

For assay [6], the system named is left atrium. As to the kind of experiment: Cardiac activity: inotropic function, isolated electrically stimulated left atrium. The arrangement: species or system guinea pig. To be noted: concentration producing increase in magnitude of 0.5 g. The source says: (§1) Guinea pigs of both sexes weighing between 300 and 500 g are killed by decapitation. The hearts are rapidly removed and placed in an oxygenated environment (95% O2 -5% CO2) in Chenoweth-Koelle's solution of the following composition (mM): NaCl (120), KCl (5.63), CaCl2 (2.0), dextrose (9.7), MgCl2 (2.0), NaHCO3 (26.0). The right and left atria are then separated from the heart and mounted in an isolated organ cell. The right atrium beats spontaneously and the left atrium is electrically stimulated. The organs under a tension of 1 g are left at rest for two hours and washed every fifteen minutes.
(§2) The products are added directly to the nutrient bath. The right atrium is used for measuring the modifications of rate (chronotropic function) whereas the left atrium indicates the modifications brought about in the contractile force (inotropic function).
For the inotropic function, the concentration capable of producing an increase in magnitude of 0.5 g with respect to the basic contraction is measured.

For assay [7], the system named is right atrium. Nature of the assay: Cardiac activity: chronotropic function, isolated spontaneously beating right atrium. The arrangement: species or system guinea pig. Conditions: concentration producing 20% increase in rate.
Description: as §1, §2
For the chronotropic function, the concentration capable of producing a 20% increase in the basic value of the rate is determined.

As to `Cn1c(=O)c2[nH]cnc2n(C)c1=O` [theophylline, reference compound], the EC50 in assay [1] (Rattus norvegicus, reduces barium chloride-induced contraction by 50%, read-out: ED50 theophylline (antispasmodic)) came to 800 µM; in assay [2] (Rattus norvegicus, reduces magnitude of spontaneous contractions by 50%, read-out: ED50 theophylline (uterine relaxant)), 900 µM; in assay [4] (Cavia porcellus, 50% inhibition of maximal carbachol contraction, read-out: EC50 Theo (anti-contractional activity, trachea)), 1000 µM. Also, the ED50 in assay [3] (Cavia porcellus, iv, read-out: ED50 Theo (bronchospasm induced in guinea pigs)) was 43 µmol/kg. Moreover, the “spontaneous activity - % variation compared with the controls, increase (.uparw.)” value was 130% in assay [5] (55 μmol/kg intraperitoneally) and 170% in assay [5] (166 μmol/kg intraperitoneally).

For the compound `CNc1nc(Br)cn2ccnc12` [Compound 9, 6-bromo-8-methylaminoimidazo[1,2-a]pyrazine], in assay [1], the “ED50 Theo/ED50 product (antispasmodic activity)” value amounted to 20. For the same compound, in assay [2], the “ED50 Theo/ED50 product (uterine relaxant activity)” value is 5.6. For the same compound, in assay [3], the “ED50 Theo/ED50 product (bronchospasm induced in guinea pigs)” value is recorded as 5.4. Besides, the “EC50 Theo/EC50 product (anti-contractional activity, trachea)” value (“EC50 Theo/EC50 product” below) in assay [4] is 8.3. Moreover, the “ED Theo/ED Product, inotropic function” value in assay [6] was found to be 50. In addition, in assay [7], the “ED Theo/ED Product, chronotropic function” value is given as 25. For the same compound, the figures for the “spontaneous activity - % variation compared with the controls, decrease (.dwnarw.)” value in assay [5] (55 μmol/kg intraperitoneally) and in assay [5] (166 μmol/kg intraperitoneally) were 74% and 83%, respectively.

Consider `CNc1nccn2c(Br)cnc12` [Compound 6, 3-Bromo-8-methylaminoimidazo[1,2-a]pyrazine], for which, in assay [1], the “ED50 Theo/ED50 product (antispasmodic activity)” value is listed as 32. Besides, the “ED50 Theo/ED50 product (uterine relaxant activity)” value in assay [2] amounted to 9. Further, the “ED50 Theo/ED50 product (bronchospasm induced in guinea pigs)” value in assay [3] worked out at 2. Also, in assay [4], the “EC50 Theo/EC50 product” value is listed as 12.5. Moreover, in assay [6], the “ED Theo/ED Product, inotropic function” value is on record as 5. Besides, in assay [7], the “ED Theo/ED Product, chronotropic function” value is recorded as 6. The “spontaneous activity - % variation compared with the controls, decrease (.dwnarw.)” value in assay [5] (55 μmol/kg intraperitoneally) is 25%; in assay [5] (166 μmol/kg intraperitoneally) it was 57%.

Consider `CCOC(=O)c1cn2ccnc(N)c2n1` [Compound 17, ethyl 8-aminoimidazo[1,2-a]pyrazine-2-carboxylate], for which the “ED50 Theo/ED50 product (antispasmodic activity)” value in assay [1] was determined as 13. Besides, in assay [2], the “ED50 Theo/ED50 product (uterine relaxant activity)” value was 2.6. Also, the “ED50 Theo/ED50 product (bronchospasm induced in guinea pigs)” value in assay [3] worked out at 1.1. Also, the “ED Theo/ED Product, inotropic function” value in assay [6] is given as less than 1. Besides, the “ED Theo/ED Product, chronotropic function” value in assay [7] was less than 1. For the same compound, the “spontaneous activity - % variation compared with the controls, increase (.uparw.)” value in assay [5] (55 μmol/kg intraperitoneally) came to 28%. In addition, the “spontaneous activity - % variation compared with the controls, decrease (.dwnarw.)” value in assay [5] (166 μmol/kg intraperitoneally) was determined as 17%.

Consider `Nc1nc(Br)cn2ccnc12` [Compound 8, 8-amino-6-bromoimidazo[1,2-a]pyrazine], for which the “ED50 Theo/ED50 product (antispasmodic activity)” value in assay [1] came out at 32. Moreover, the “ED50 Theo/ED50 product (uterine relaxant activity)” value in assay [2] was determined as 3. In addition, the “ED50 Theo/ED50 product (bronchospasm induced in guinea pigs)” value in assay [3] was determined as 4. Further, the “EC50 Theo/EC50 product” value in assay [4] came out at 11.3. Moreover, the “ED Theo/ED Product, inotropic function” value in assay [6] is listed as 10. The “ED Theo/ED Product, chronotropic function” value in assay [7] amounted to 2. Further, the entries for the “spontaneous activity - % variation compared with the controls, decrease (.dwnarw.)” value in assay [5] (55 μmol/kg intraperitoneally) and in assay [5] (166 μmol/kg intraperitoneally) were 53% and 83%, respectively.

Regarding `CCNc1nc(Br)cn2ccnc12` [Compound 10, 6-bromo-8-ethylaminoimidazo[1,2-a]pyrazine], the “ED50 Theo/ED50 product (antispasmodic activity)” value in assay [1] was determined as 40. For the same compound, the “ED50 Theo/ED50 product (uterine relaxant activity)” value in assay [2] was determined as 7.2. In addition, the “ED50 Theo/ED50 product (bronchospasm induced in guinea pigs)” value in assay [3] stood at 2. Also, the “EC50 Theo/EC50 product” value in assay [4] amounted to 5. For the same compound, the “ED Theo/ED Product, inotropic function” value in assay [6] was 4. Moreover, in assay [7], the “ED Theo/ED Product, chronotropic function” value stood at 15. The “spontaneous activity - % variation compared with the controls, decrease (.dwnarw.)” value in assay [5] (55 μmol/kg intraperitoneally) turned out to be 13%; in assay [5] (166 μmol/kg intraperitoneally), 73%.
